According to patent US20240116875A1, “RATIONAL DESIGN, OPTIMIZATION, AND BIOLOGICAL EVALUATION OF NOVEL MEK4 INHIBITORS AGAINST PANCREATIC ADENOCARCINOMA” (NORTHWESTERN UNIVERSITY, priority 2022, published 2024):
Entries after “also recorded” stand apart in the source; their conditions may differ. Where two headings read alike, the source gives them in different places.

Assays:
Cot = Cot (Homo sapiens, UniProt P41279); conditions: cited from earlier work
MEK7 = target: T1, MEK7 (Homo sapiens, UniProt O14733); test: ADP-Glo kinase activity assay, MEK7; assay type: biochemical
T1 construct: purchased Carna Biosciences
T1 sequence (O14733 1-419): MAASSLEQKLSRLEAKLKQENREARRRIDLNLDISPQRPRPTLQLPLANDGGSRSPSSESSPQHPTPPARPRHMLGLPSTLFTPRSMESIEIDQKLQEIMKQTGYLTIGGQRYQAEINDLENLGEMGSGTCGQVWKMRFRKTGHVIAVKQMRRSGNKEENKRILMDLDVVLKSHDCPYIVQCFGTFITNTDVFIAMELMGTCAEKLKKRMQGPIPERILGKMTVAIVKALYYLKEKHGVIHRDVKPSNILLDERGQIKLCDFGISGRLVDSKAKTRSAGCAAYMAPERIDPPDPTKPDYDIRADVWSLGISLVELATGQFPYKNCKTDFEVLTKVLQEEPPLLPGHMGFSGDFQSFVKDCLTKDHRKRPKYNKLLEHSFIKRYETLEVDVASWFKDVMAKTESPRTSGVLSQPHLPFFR
Description: The compounds were then evaluated both in vitro and in a cellular system. When studying kinase inhibitors, there are a multitude of ways to evaluate selectivity across kinases.
Procedure for a 5 μL Kinase reaction using the ADP-Glo Kinase Assay Kit from Promega. Staurosporine was used as the positive control, and DMSO as the negative control. Activity of recombinant active full-length human MEK4 (Carna Biosciences) was measured using the ADP-Glo assay with recombinant full-length human p38α (MAPK14). Kinase reactions with MEK7 (Carna Biosciences) were done at the same concentration and amounts with recombinant full-length human p38α (MAPK14).
For each well, 4 ng of MEK4 and 600 ng of p38α in Kinase buffer (CST) were used, and 1 μL of this mixture was dispensed per well.
Inhibitor was prepared in a DMSO solution. A dose response dilution was done in a 384-well Echo transfer plate. […] This mixture was allowed to incubate for 30 minutes at room temperature.
Using a Mantis, 1 μL, of an 8 μM ATP solution was added to each well, and the plate was allowed to incubate for another 1 hour at room temperature. […] All experiments were done in triplicate on the plate, and at least in one separate technical duplicate.

[1] = test system: JNK phosphorylation in HEK293T cells; test: anisomycin-induced JNK phosphorylation, western blotting, HEK293T; assay type: cell-based, human; conditions: anisomycin 45 minutes then compound 5 hours, increasing doses
Description: The blots are representative of at least three biological replicates.
(§1) We also examined the effects of these inhibitors on JNK phosphorylation and proliferation of two pancreatic cancer cell lines (CD18 and MiaPaCa2).
(§2) Human pancreatic cancer cell lines (CD18/HPAF-II and MiaPaCa2) and HEK293T cells were obtained from American Type Culture Collection. All cell lines were cultured according to the manufacturer's protocol. All media contained 10% Fetal Bovine Serum (FBS) and antibiotics (100 U/mL Penicillin and 100 μg/mL Streptomycin).
(§3) Whole cell extracts of cultured cells were prepared in radioimmunoprecipitation (RIPA) lysis buffer supplemented with phosphatase and protease inhibitors (Calbiochem). Protein concentration was determined by the bicinchoninic acid assay (BCA) (ThermoFisher) and separated by the SDS-PAGE technique. […] Secondary anti-mouse IgG (A4416) and anti-rabbit IgG (A6667) antibodies were purchased from Sigma-Aldrich and used a 1:4000 dilution. Images of blots were acquired on HyBlot ES Autoradiography Film (Thomas Scientific, Swedesboro, NJ, USA) following incubation with SuperSignal West Pico PLUS (ThermoFisher).

[2] = Log D study (BioDuro-Sundia); conditions: pH of 7.4
MiaPaCa2 cells = test: cell proliferation (cell count after 72 hours), MiaPaCa2; assay type: cell-based, human; conditions: MiaPaCa2, 72 hours, varying doses, single agent
Description: (§4) After 72 hours, cells were trypsinized, counted, and the cell numbers were normalized against the DMSO treatment. Mean±SD. Graphs are representative of 3 biological replicates.
as §4
(§5) Cell numbers from different treatments were normalized against the DMSO treatment, and CDI is calculated as follows: CDI=AB/(A×B), with AB being the ratio of the combination groups to control group and A or B being the ratio of the single agent group to the DMSO group. Mean±SEM from 3 biological replicates.
as §1, §2

CYP 1A2 = CYP 1A2 (Homo sapiens, UniProt P05177)
[3] = test system: phospho-p42/44 MAPK in CD18 cells; test: p42/44 MAPK phosphorylation, western blotting, CD18; assay type: cell-based, human; conditions: CD18, MEK4 inhibitor 10 μM, 5 hours
Description: (§6) The effects of different treatments on phospho-p42/44 MAPK and total p42/44 MAPK expression levels were determined by western blotting. HSP90 was used as loading control. The blots are representative of at least three biological replicates.
as §3

[4] = test system: JNK phosphorylation in CD18 cells; test: anisomycin-induced JNK phosphorylation, western blotting, CD18; assay type: cell-based, human; conditions: CD18, anisomycin 45 minutes then compound 5 hours
Description: (§7) HSP90 was used as loading control. The blots are representative of at least three biological replicates.
as §1, §2, §3

[5] = test system: phospho-p38 MAPK in HEK293T cells; test: p38 MAPK phosphorylation, western blotting, HEK293T; assay type: cell-based, human; conditions: anisomycin pretreatment, compound 100 μM, 5 hours
Description: as §7
(§8) We next evaluated the effects of our inhibitors on the phosphorylation activity and expression of MEK1/2, MEK3/6, and MEK7. […] We also evaluated the effects on p42/44 MAPK (ERK1/2), which functions downstream of MEK1/2.
as §3

CD18 cells = test: cell proliferation (cell count after 72 hours), CD18; assay type: cell-based, human; conditions: CD18, 72 hours, varying doses, single agent
Description: as §4, §4, §5, §1, §2

CYP 2D6 = CYP 2D6 (Homo sapiens, UniProt P10635); test: CYP inhibition, 2D6
[6] = test system: phospho-p42/44 MAPK in HEK293T cells; test: p42/44 MAPK (ERK1/2) phosphorylation, western blotting, HEK293T; assay type: cell-based, human; conditions: anisomycin pretreatment, compound 100 μM, 5 hours
Description: as §7, §8, §3

[7] = test system: JNK phosphorylation in MiaPaCa2 cells; test: anisomycin-induced JNK phosphorylation, western blotting, MiaPaCa2; assay type: cell-based, human; conditions: MiaPaCa2, anisomycin 45 minutes then compound 5 hours
Description: as §7, §1, §2, §3

HEK293T cells = test: cell proliferation (cell count after 72 hours), HEK293T; assay type: cell-based, human; conditions: varying doses
Description: After 72 hours, cells were trypsinized, counted, and the cell numbers were normalized against the DMSO treatment. Mean±SD. Graphs are representative of 3 biological replicates. One-way ANOVA; ns, non-significant **, p<0.01 ***, p<0.001.
as §1, §2

CYP isoforms 3A4/5 = test: CYP inhibition, 3A4/5
[8] = test system: phospho-p42/44 MAPK in MiaPaCa2 cells; test: p42/44 MAPK phosphorylation, western blotting, MiaPaCa2; assay type: cell-based, human; conditions: MiaPaCa2, MEK4 inhibitor 10 μM, 5 hours
Description: as §6, §3

[9] = liver microsome stability study (BioDuro-Sundia)
[10] = test system: MEK7 expression in HEK293T cells; test: MEK7 expression, western blotting, HEK293T; assay type: cell-based, human; conditions: anisomycin pretreatment, compound 100 μM, 5 hours
Description: as §7, §8, §3

Caco-2 = Caco-2 permeability assay; assay type: in vitro ADME
CYP 2C19 = CYP 2C19 (Homo sapiens, UniProt P33261); test: CYP inhibition, 2C19
[11] = PAMPA assay (BioDuro-Sundia); assay type: in vitro ADME
CYP 2C9 = CYP 2C9 (Homo sapiens, UniProt P11712); test: CYP inhibition, 2C9
CYP 2C9, sequence (P11712 whole entry): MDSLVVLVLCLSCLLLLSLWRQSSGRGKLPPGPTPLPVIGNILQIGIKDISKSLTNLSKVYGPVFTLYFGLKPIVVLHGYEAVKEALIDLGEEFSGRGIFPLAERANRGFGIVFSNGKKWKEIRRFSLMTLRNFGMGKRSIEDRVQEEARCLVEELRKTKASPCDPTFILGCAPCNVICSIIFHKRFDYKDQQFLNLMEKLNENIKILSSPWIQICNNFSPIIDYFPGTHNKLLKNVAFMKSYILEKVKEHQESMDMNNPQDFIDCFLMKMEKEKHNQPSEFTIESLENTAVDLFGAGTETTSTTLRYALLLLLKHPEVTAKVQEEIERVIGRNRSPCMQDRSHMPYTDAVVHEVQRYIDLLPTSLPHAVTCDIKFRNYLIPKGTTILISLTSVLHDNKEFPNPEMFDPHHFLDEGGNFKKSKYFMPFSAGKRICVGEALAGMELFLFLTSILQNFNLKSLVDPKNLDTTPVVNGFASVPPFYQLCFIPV

CYP 2D6, sequence (P10635 whole entry): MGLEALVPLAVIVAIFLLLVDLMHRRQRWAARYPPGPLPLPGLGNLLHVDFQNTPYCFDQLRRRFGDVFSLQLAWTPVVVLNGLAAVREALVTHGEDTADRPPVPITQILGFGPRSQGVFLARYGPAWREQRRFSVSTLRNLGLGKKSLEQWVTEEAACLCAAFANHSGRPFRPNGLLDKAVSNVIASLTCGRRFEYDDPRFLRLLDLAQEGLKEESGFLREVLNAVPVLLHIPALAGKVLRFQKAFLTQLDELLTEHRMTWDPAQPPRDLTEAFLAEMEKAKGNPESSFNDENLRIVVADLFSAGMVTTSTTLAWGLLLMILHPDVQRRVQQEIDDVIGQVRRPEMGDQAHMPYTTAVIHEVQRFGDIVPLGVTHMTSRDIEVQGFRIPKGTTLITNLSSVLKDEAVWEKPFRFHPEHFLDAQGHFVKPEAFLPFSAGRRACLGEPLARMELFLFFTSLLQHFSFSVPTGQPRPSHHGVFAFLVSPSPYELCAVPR
CYP 1A2, sequence (P05177 whole entry): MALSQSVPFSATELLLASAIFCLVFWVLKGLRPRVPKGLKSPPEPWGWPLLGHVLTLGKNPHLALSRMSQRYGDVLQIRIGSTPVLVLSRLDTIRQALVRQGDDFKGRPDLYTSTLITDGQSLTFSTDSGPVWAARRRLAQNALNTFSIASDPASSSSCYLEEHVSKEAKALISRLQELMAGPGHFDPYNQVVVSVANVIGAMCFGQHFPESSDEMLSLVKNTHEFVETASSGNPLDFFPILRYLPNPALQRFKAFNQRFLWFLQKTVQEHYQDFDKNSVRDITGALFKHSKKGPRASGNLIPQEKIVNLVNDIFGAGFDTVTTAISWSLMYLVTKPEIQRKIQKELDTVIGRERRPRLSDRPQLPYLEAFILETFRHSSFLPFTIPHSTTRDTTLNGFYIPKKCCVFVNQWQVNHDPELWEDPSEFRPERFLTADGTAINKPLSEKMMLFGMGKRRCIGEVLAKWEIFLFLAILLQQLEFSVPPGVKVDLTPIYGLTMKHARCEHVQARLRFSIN
Cot, sequence (P41279 whole entry): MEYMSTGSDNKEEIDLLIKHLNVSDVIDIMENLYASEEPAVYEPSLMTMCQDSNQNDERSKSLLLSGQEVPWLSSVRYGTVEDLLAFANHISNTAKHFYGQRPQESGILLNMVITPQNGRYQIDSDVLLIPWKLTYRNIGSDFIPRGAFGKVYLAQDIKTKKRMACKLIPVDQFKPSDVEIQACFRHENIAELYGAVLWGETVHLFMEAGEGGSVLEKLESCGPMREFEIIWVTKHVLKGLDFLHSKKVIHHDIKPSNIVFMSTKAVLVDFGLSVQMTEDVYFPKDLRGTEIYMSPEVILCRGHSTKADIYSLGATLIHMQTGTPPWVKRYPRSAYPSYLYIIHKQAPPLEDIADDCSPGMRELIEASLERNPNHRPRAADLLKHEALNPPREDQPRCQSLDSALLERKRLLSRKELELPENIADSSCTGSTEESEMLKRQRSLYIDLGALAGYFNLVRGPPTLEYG
CYP 2C19, sequence (P33261 whole entry): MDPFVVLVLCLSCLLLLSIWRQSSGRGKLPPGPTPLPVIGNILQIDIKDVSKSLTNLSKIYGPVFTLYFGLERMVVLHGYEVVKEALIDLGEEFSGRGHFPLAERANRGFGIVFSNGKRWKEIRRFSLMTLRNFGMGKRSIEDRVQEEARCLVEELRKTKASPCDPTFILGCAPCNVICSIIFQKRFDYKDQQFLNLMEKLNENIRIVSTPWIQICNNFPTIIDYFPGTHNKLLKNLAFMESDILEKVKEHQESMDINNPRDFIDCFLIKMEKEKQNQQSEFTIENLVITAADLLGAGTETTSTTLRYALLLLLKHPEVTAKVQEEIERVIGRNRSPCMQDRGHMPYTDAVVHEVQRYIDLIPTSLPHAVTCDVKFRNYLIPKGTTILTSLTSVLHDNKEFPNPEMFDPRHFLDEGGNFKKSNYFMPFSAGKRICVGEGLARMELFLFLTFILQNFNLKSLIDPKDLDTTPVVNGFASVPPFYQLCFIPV

O=c1c(-c2ccc(O)c(O)c2)coc2cc(O)ccc12 [THIF, 7,3′,4′-trihydroxyisoflavone]
Cot activity (literature) (Cot): inhibits

NS(=O)(=O)c1ccc(-c2n[nH]c3cc(F)ccc23)cc1 [Compound 10e, 4-(6-fluoro-1H-indazol-3-yl)benzenesulfonamide]
IC50 (MEK7): 520 ± 670 nM | IC50 (MEK7; headline value per compound, read-out: MEK7 IC50): 540 nM | IC50 (MEK7; individual experiment, values in brackets, n=3, read-out: MEK7 IC50 of each experiment (IC50±SEM)): 560 ± 220 nM | effect on anisomycin-induced JNK phosphorylation [1]: attenuated anisomycin-induced INK phosphorylation in a dose-dependent manner | log D [2]: 2.80 | cell proliferation (MiaPaCa2 cells): decreased proliferation; also recorded: antiproliferative properties | inhibition of CYP 1A2 (CYP 1A2): inhibited | effect on p42/44 MAPK phosphorylation [3]: increased p42/44 MAPK phosphorylation | effect on anisomycin-induced JNK phosphorylation [4]: attenuated anisomycin-induced JNK phosphorylation | effect on anisomycin-induced p38 MAPK phosphorylation [5]: not affected | cell proliferation (CD18 cells): decreased proliferation; also recorded: antiproliferative properties | inhibition of CYP 2D6 (CYP 2D6): avoided inhibiting | effect on p42/44 MAPK phosphorylation after anisomycin [6]: reversed the effects of anisomycin | effect on anisomycin-induced JNK phosphorylation [7]: attenuated anisomycin-induced JNK phosphorylation | cell proliferation (HEK293T cells): decreased. HEK293T cell proliferation in a dose-dependent manner | inhibition of CYP isoforms 3A4/5 (CYP isoforms 3A4/5): did not inhibit | effect on p42/44 MAPK phosphorylation [8]: did not induce p42/44 MAPK phosphorylation | half-life in the microsome assay ([9]; liver microsome): 114 min | stability in the microsome assay ([9]; microsomes): good stability | effect on the expression of MEK7 [10]: no effect | Caco-2 permeability (Caco-2): medium to high permeability | inhibition of CYP 2C19 (CYP 2C19): inhibited | permeability in the PAMPA assay [11]: performed slightly better | inhibition of CYP 2C9 (CYP 2C9): avoided inhibiting
